Assay results: publication PMC6249549, “Bioactive metabolites from the leaves of Withania adpressa” (Pharmaceutical Biology, 2018)
Entries after “also recorded” stand apart in the source; their conditions may differ.

What was measured:
[1] = tested on: MM-CSCs (multiple myeloma cancer stem cells); assay: Antiproliferative activity, MTT assay; format: cell-based, Human; conditions: 72 h; for IC50: Homo sapiens, mean ± SD of three measurements
Description: (§1) Human multiple myeloma cancer stem cells (MM-CSCs) derived from the bone marrow of a MM patient, were obtained from Celprogen (Torrance, CA). MM-CSCs were used between passages 4 and 12 for experiments. The tumour plasma cells RPMI 8226 were obtained from LGC standards (Middlesex, United Kingdom). RPMI 8226 cells were used between passages 10 and 25 for experiments. The two cell lines were cultured at 37 °C and 5% CO2 atmosphere in RPMI 1640 culture medium supplemented with 10% foetal bovine serum (Biowest), 100 IU/mL penicillin and 250 μg/mL streptomycin. MTT and XTT assays were used to evaluate the antiproliferative activity of the pure compounds in MM-CSCs and RPMI 8226 cells, respectively (Issa and Cuendet [2017]). MM-CSCs were seeded in 96 well plates at a density of 5,000 cells per well and allowed to adhere for 24 h, whereas RPMI 8226 cells were plated at a density of 15,000 cells per well and treated immediately. MM-CSCs and RPMI 8226 cells were treated with increasing concentrations (0–20 µM) of compounds for 72 h. Twenty microlitres of MTT solution (5 mg/mL) or 50 μL XTT solution (1 mg/mL) were added in each well and incubated for 2 h (MTT assay) or 4 h (XTT assay). The media and MTT solution were aspirated and the cells containing formazan were solubilized in 100 µL DMSO. Absorbance was measured at 590 nm (MTT assay) or 450 nm (XTT assay). The percentage of cell viability was calculated as the absorbance of each well was divided by that of the vehicle control wells (0.5% DMSO in culture medium) and multiplied by 100. IC50 values were calculated using GraphPad Prism. Each compound was tested in triplicate and three independent experiments were performed using bortezomib as positive control.

RPMI 8226 cells = assay: Antiproliferative activity, XTT assay; format: cell-based; conditions: for IC50: Homo sapiens, RPMI-8226, 72 h, mean ± SD of three measurements; for Antiproliferative activity against RPMI 8226 (in words): 72 h
Description: as §1

NF-κB = NF-κB inhibition assay, TNF-α stimulated HEK293/NF-κB-luc luciferase reporter cells; format: cell-based; conditions: TNF-α (20 ng/mL) induced, mean ± SD of three independent measurements
Description: NF-κB inhibitory activity was assessed using a HEK293/NF-κB-luc cell line (Panomics, Fremont, CA) as previously described (Ndongo et al. [2017]). Briefly, cells were cultured at 37 °C and 5% CO2 atmosphere in high glucose Dulbecco's modified Eagle's medium (ThermoFisher Scientific) with 100 IU/mL penicillin, 100 μg/mL streptomycin, 100 μg/mL hygromycin B (ThermoFisher Scientific) and 10% foetal bovine serum (Biowest, Nuaillé, France). The day before the assay, cells were treated for 1 h with 2.5 μM of Cell Tracker Green CMFDA (ThermoFisher Scientific), a fluorescent dye used to quantify cell viability, in FBS-free medium. Then, 10^4 cells/well were seeded in 96-well plates and incubated overnight. After that, cells were treated with either the vehicle control (0.5% DMSO in culture medium) or the samples and stimulated for 5 h with 20 ng/mL of TNF-α (Sigma-Aldrich, Saint Louis, MO). Finally, cells were lysed with reporter lysis buffer (Promega, Madison, WI) and fluorescence signals were read on a Cytation 3 multimode plate reader (Biotek, Winooski, VT). Luciferase assay reagent (Promega) was then added to each well using the auto-injector and the luminescence signals were read. The fluorescence signal was used to normalize the luminescence signal for each well to limit the influence of cell toxicity in luminescence signal intensity. Relative NF-κB activity was quantified by comparing the normalized luminescence signal of vehicle treated nonstimulated cells with the one of vehicle treated stimulated cells. All pure compounds were first screened at 20 μM. Compounds able to inhibit more than 50% of TNF-α induced NF-κB activity at this concentration were considered as active and were selected for calculation of their IC50. Nonlinear regression (with sigmoidal dose response) was used to calculate the IC50 values using GraphPad Prism. Each compound was tested in duplicate and three independent experiments were performed using parthenolide as positive control.

[2] = DPPH radical scavenging assay; conditions: pure compound
Description: The DPPH radical scavenging activity was carried out as described previously (Şahin et al. [2004]) with slight modifications. Samples (1–200 µg/mL) were added to a 60-μM methanol solution of DPPH. The absorbance of the solution was measured at 517 nm after a 30-min incubation period at room temperature in the dark.

[3] = NO radical scavenging assay; conditions: pure compound

| IC50 [2] [nM] | IC50 [3] [nM] | SMILES | IC50 [1] [nM] | IC50 (RPMI 8226 cells) [nM] | Antiproliferative activity against MM-CSCs (in words) [1] | IC50 (NF-κB; Homo sapiens, HEK293, 5 h) [nM] | Antiproliferative activity against RPMI 8226 (in words) (RPMI 8226 cells) | IC50 (NF-κB; 5 h) [nM] |
| --- | --- | --- | --- | --- | --- | --- | --- | --- |
|  |  | CC(C)C[C@H](NC(=O)[C@H](Cc1ccccc1)NC(=O)c1cnccn1)B(O)O [Bortezomib, bortezomib, reference compound] | 9.1 ± 1.4 | 3.3 ± 0.8 |  |  |  |  |
|  |  | CC1=C(C)C(=O)O[C@@H]([C@](C)(O)[C@]2(O)CC[C@@]3(O)[C@@H]4CC=C5CC=CC(=O)[C@]5(C)[C@H]4CC[C@]23C)C1 [Compound 1, withanolide F] | 5300 ± 900 | 100 ± 10 | low µM antiproliferative activity; also recorded: showed activity | 1200 ± 200 | low µM antiproliferative activity; also recorded: showed activity |  |
|  |  | CC1=C(CO)C(=O)O[C@@H]([C@@H](C)[C@H]2CC[C@H]3[C@@H]4C[C@H]5O[C@]56[C@@H](O)C=CC(=O)[C@]6(C)[C@H]4CC[C@]23C)C1 [Compound 2, withaferin A] | 330 ± 20 | 170 ± 30 | low µM antiproliferative activity | 47 | low µM antiproliferative activity | 50 ± 10 |
|  |  | CC1=C(C)C(=O)OC(C(C)(O)C2(O)CCC3(O)C4CC=C5CC(OC6OC(CO)C(O)C(O)C6O)CC(=O)C5(C)C4CCC32C)C1 (stereo not shown) [Compound 3, coagulin L] | > 20000 | 3600 ± 600 |  | > 20000 |  |  |
| 35300 | 41300 | C[C@@H]1O[C@@H](OC[C@H]2O[C@@H](Oc3c(-c4ccc(O)cc4)oc4cc(O)cc(O)c4c3=O)[C@H](O)[C@@H](O)[C@@H]2O)[C@H](O)[C@H](O)[C@H]1O [Compound 4, nicotiflorin] | > 20000 | 7100 ± 100 |  | > 20000 |  |  |
|  |  | CC1=C(C)C(=O)OC(C(C)(O)C2(O)CCC3(O)C4CC=C5CC(OC6OC(CO)C(OC7OC(C)C(O)C(O)C7O)C(O)C6O)CC(=O)C5(C)C4CCC32C)C1 [Compound 5, (14R,17S,20R,22R)-3β-O-(α-L-rhamnopyranosyl-(1→4)-β-D-glucopyranosyl)-14,17,20-trihydroxy-1-oxo-witha-5,24-dienolide] | > 20000 | 3200 ± 400 |  | > 20000 |  |  |
|  |  | C=C1C(=O)O[C@H]2[C@H]1CC/C(C)=C/CC[C@@]1(C)O[C@@H]21 [Parthenolide, parthenolide, reference compound] |  |  |  | 530 ± 10 |  |  |
